Test [1] has as its system Clq biosynthesis of macrophages. Conditions: W. Muller et al., FEBS Lett. 90, 218 (1978); cited from earlier work.
The subject of the next test is calvaria culture. Nature of the test: calvaria culture: reduction of the hydroxyproline/proline quotients in metabolic labeling with ^14 C-proline. As to conditions: 50% reduction of the hydroxyproline/proline quotients in metabolic labeling with ^14 C-proline; esters. It counts as cell-based. The source says:
The inhibitory activity can also be determined in cell or tissue culture. To do this, fibroblasts or other collagen-producing cells or calvaria or other collagen-producing organs can be employed. The inhibitory activity of substances according to the invention in calvaria culture is collated in Table 3. The concentration is indicated which leads to a 50% reduction of the hydroxyproline/proline quotients in metabolic labeling with ^14 C-proline (IC50).

The target in the next test is prolyl hydroxylase (Homo sapiens, UniProt P13674). Description: enzyme test: hydroxylation of underhydroxylated collagen with prolyl hydroxylase in the presence of iron(II) ions, α-keto glutarate and ascorbate. Format: biochemical. Conditions: concentration which leads to an 80% inhibition of enzyme activity (the value is indicated as Ki); salts.
prolyl hydroxylase, sequence (P13674 18-534): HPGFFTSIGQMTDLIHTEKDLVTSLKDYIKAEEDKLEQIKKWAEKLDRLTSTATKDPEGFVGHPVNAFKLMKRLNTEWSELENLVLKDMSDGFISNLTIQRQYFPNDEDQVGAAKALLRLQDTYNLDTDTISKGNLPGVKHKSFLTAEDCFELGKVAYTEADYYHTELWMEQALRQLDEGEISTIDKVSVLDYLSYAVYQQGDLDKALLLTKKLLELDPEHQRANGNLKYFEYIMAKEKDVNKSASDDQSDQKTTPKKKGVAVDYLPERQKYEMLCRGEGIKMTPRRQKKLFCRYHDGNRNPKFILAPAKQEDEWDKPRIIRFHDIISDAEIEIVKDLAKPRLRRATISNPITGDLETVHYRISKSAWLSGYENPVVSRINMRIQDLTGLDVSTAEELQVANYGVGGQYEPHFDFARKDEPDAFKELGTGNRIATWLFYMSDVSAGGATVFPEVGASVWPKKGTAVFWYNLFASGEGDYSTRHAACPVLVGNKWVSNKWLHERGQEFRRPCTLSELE
prolyl hydroxylase, sequence (P07237 18-508 partner): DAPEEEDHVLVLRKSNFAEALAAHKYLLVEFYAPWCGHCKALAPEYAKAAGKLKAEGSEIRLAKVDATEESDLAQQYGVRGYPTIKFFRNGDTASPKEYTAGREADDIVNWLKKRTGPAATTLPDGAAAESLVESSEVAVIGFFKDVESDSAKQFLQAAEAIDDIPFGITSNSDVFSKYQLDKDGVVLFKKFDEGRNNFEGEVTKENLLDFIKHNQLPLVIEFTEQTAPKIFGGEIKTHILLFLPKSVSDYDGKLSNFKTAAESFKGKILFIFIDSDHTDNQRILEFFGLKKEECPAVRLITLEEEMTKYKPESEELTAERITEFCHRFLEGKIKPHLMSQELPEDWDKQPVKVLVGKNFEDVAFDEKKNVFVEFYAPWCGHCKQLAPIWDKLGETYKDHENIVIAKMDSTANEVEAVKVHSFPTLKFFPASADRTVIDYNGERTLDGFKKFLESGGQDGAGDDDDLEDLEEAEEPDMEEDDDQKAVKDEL

Where a name gives a salt, the structure may show the parent alone.

For the compound `c1ccc(-c2ccccn2)nc1` [α, α-dipyridyl], in test [1], the “inhibition of Clq biosynthesis” value was “inhibition of Clq biosynthesis of macrophages”.

In the test with calvaria culture, `COC(=O)C(=O)N[C@@H](C)C(=O)OC` [Example 1, (N-Oxalyl)-L-alanine dimethyl ester] came in with a concentration for half-maximal inhibition (IC50) of 350 µM.

Compound `COC(=O)CNC(=O)C(=O)OC` [Example 3, (N-Oxalyl)-L-glycine dimethyl ester] gave a half-inhibitory concentration (IC50) in the test with calvaria culture of 2 µM.

With `C[C@H](NC(=O)C(=O)O)C(=O)O` [dipotassium salt], the Ki at prolyl hydroxylase was 40 µM.

Turning to `O=C(O)CNC(=O)C(=O)O` [Example 10, (N-Oxalyl)-L-glycine dipotassium salt], at prolyl hydroxylase, the Ki was found to be 10 µM.

The values above are taken from US5204338A, “Oxalylamino acid derivatives and their use as medicaments for inhibiting proline hydroxylase” (Hoechst Aktiengesellschaft, priority 1990, dated 1993).
